In the supplement of paper PMC11208160:

experiment: recombinant UMI read abundance after kanamycin selection (control-corrected) (log10(CPM+1)); higher = more efficient recombination; extreme values may be limits of the assay; sequences stand for … in AGTGCAGAGAAAATCGGCCAGTTTTCTCTGCCTGCAGTCCGCATGCCGTGGGACCCCTTGGGTTCTAACCTGTTGCCTAGATTTATGCAGCGGACTGCCTTTCTCCCAAAGTGATAAACCGG…AGGTTGGTTTCACT; site = the 11-nt donor
Summary of the method: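 Pooled Escherichia coli screen of donor and donor-binding-loop pairs for the IS621 bridge recombinase. Each pair sits with a 12-nt UMI on a plasmid carrying a promoterless kanamycin gene. The library was co-electroporated with a target plasmid encoding a fixed target and T7-inducible recombinase, then plated with IPTG (0.07 mM) plus kanamycin, or unselected, each in two replicates. Recombinant UMIs were PCR-amplified across the donor–target junction and sequenced. Counts became CPM, averaged over replicates, scaled by control-derived factors and reported as log10(CPM+1).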

Row | Sequence | recombinant UMI read abundance (log10)
1 | GGGGCACCATGGACCGGTTTTCCCGGTAATCCGTATTTGCA (site GAGGCACCTTG) | 0.00459
2 | AGGTAGCCATGGACCGGTTTTCCCGGTAATCCGTATTTGTA (site AGGTAGCCTTA) | 0.215
3 | CTCTACGCATGGACCGGTTTTCCCGGTAATCCGTATTTGCT (site CTCTACGCTAG) | 0.572
4 | TGGCCGGCATGGACCGGTTTTCCCGGTAATCCGTATTTGGC (site TGACCGGCTGC) | 0
5 | AATTATACATGGACCGGTTTTCCCGGTAATCCGTATTTGGA (site AATTATCCTTC) | 0.0125
6 | CTAGTACCATGGACCGGTTTTCCCGGTAATCCGTATTTGAC (site CTAGTAGCTGT) | 0.415
7 | GTCTGCCCATGGACCGGTTTTCCCGGTAATCCGTATTTGCG (site GTCTGCCCTCG) | 0.0315
8 | CACTCGGCATGGACCGGTTTTCCCGGTAATCCGTATTTGTA (site CACTCGGCTTA) | 2.18
9 | CAGGAACCATGGACCGGTTTTCCCGGTAATCCGTATTTGAT (site CCGGAACCTAT) | 0
10 | CACTACACATGGACCGGTTTTCCCGGTAATCCGTATTTGCT (site CTCTACACTAG) | 1.79
11 | ACGGTTTCATGGACCGGTTTTCCCGGTAATCCGTATTTGCA (site ACAGTATCTTG) | 2.71
12 | CGGGAACCATGGACCGGTTTTCCCGGTAATCCGTATTTGTT (site CGGGAACCTAC) | 0
13 | GGGACACCATGGACCGGTTTTCCCGGTAATCCGTATTTGCA (site GGGTCACCTTG) | 0
14 | AGAAAGGCATGGACCGGTTTTCCCGGTAATCCGTATTTGCT (site AGAAAGGCTAA) | 0.446
15 | ACACTTTCATGGACCGGTTTTCCCGGTAATCCGTATTTGCA (site ACAGTATCTTG) | 1.19
16 | CACATGGCATGGACCGGTTTTCCCGGTAATCCGTATTTGGA (site CACCTGGCTTC) | 0.346
17 | AGTGAGACATGGACCGGTTTTCCCGGTAATCCGTATTTGGT (site AATGAGACTAC) | 0.439
18 | TGCTCGGCATGGACCGGTTTTCCCGGTAATCCGTATTTGGT (site TGCTCGGCTAC) | 0.0236
19 | GGAGTGTCATGGACCGGTTTTCCCGGTAATCCGTATTTGGT (site GGAGTGACTAC) | 0.192
20 | CAGTTGCCATGGACCGGTTTTCCCGGTAATCCGTATTTGGT (site CAGTTGCCTAC) | 0.0159
21 | TAGCAATCATGGACCGGTTTTCCCGGTAATCCGTATTTGCG (site TAGCAATCTCG) | 1.45
22 | CAAATATCATGGACCGGTTTTCCCGGTAATCCGTATTTGAC (site CAAATATCTGT) | 1.58
23 | AAGCACGCATGGACCGGTTTTCCCGGTAATCCGTATTTGGG (site AAGCACCCTCC) | 0
24 | GTATGCACATGGACCGGTTTTCCCGGTAATCCGTATTTGTA (site GTATGGACTTA) | 0.0258
25 | GTAGGTCCATGGACCGGTTTTCCCGGTAATCCGTATTTGAC (site GTAGGTGCTGT) | 0

Row | Sequence | recombinant UMI read abundance (log10)
26 | ACTCGAACATGGACCGGTTTTCCCGGTAATCCGTATTTGTC (site ACTCGAACTGA) | 2
27 | TGCTAGGCATGGACCGGTTTTCCCGGTAATCCGTATTTGGT (site TGCTAGGCTAC) | 0.108
28 | AGCCTAGCATGGACCGGTTTTCCCGGTAATCCGTATTTGTA (site AGCCTAGCTCA) | 0.0462
29 | TCCAATTCATGGACCGGTTTTCCCGGTAATCCGTATTTGCC (site TGCAATTCTGG) | 0
30 | CAAGCACCATGGACCGGTTTTCCCGGTAATCCGTATTTGCT (site CAAGCAACTAG) | 0
31 | GCCCTTGCATGGACCGGTTTTCCCGGTAATCCGTATTTGAC (site GCCCTTGCTGT) | 1.06
32 | GGGGCACCATGGACCGGTTTTCCCGGTAATCCGTATTTGCA (site TGGGCACCTTG) | 0.00982
33 | TGTACACCATGGACCGGTTTTCCCGGTAATCCGTATTTGAG (site TGTACACCTAT) | 0.0116
34 | GTTCGATCATGGACCGGTTTTCCCGGTAATCCGTATTTGCA (site GTTCGAACTTG) | 0
35 | CCAGTATCATGGACCGGTTTTCCCGGTAATCCGTATTTGAC (site CTAGTATCTGT) | 0.871
36 | GAAGGTTCATGGACCGGTTTTCCCGGTAATCCGTATTTGTT (site GAAGATTCTAA) | 1.32
37 | TGTACACCATGGACCGGTTTTCCCGGTAATCCGTATTTGAC (site TGTACAGCTGT) | 0
38 | GTAATATCATGGACCGGTTTTCCCGGTAATCCGTATTTGCA (site GTAATATCTTG) | 2.6
39 | CTAGTGCCATGGACCGGTTTTCCCGGTAATCCGTATTTGAC (site CTAGTATCTGT) | 0.948
40 | TACTGGACATGGACCGGTTTTCCCGGTAATCCGTATTTGCT (site TACTTGACTAG) | 0.00209
41 | GTCAGGACATGGACCGGTTTTCCCGGTAATCCGTATTTGTC (site GTCAGGACTGA) | 2.38
42 | CTGATACCATGGACCGGTTTTCCCGGTAATCCGTATTTGCT (site CTGATACCTAG) | 0.00587
43 | CAATTAACATGGACCGGTTTTCCCGGTAATCCGTATTTGCT (site CAATTAACTAG) | 0.982
44 | CTGCTACCATGGACCGGTTTTCCCGGTAATCCGTATTTGAT (site CTGCTACCTAG) | 0.00723
45 | GGTGCGTCATGGACCGGTTTTCCCGGTAATCCGTATTTGTT (site GGTGCGTCTAA) | 0.668
46 | CGCGTGTCATGGACCGGTTTTCCCGGTAATCCGTATTTGAC (site CGCGTGTCTGT) | 0
47 | AGTAAGGCATGGACCGGTTTTCCCGGTAATCCGTATTTGCT (site AGCAAGGCTAG) | 1.21
48 | GTTGCAACATGGACCGGTTTTCCCGGTAATCCGTATTTGCC (site GTTGCAACTGG) | 0
49 | TGATAGCCATGGACCGGTTTTCCCGGTAATCCGTATTTGGA (site TGATAGCCTTC) | 0.0136
50 | GGATTCACATGGACCGGTTTTCCCGGTAATCCGTATTTGTT (site GGATTCACTAA) | 1.44

Row | Sequence | recombinant UMI read abundance (log10)
51 | ATTCGAGCATGGACCGGTTTTCCCGGTAATCCGTATTTGCA (site CTTCGAGCTTG) | 1.44
52 | CTGCTACCATGGACCGGTTTTCCCGGTAATCCGTATTTGCC (site CTGCTACCTAG) | 0
53 | GCCACGCCATGGACCGGTTTTCCCGGTAATCCGTATTTGTA (site GCCACGCCTTC) | 0.00289
54 | ACAGTATCATGGACCGGTTTTCCCGGTAATCCGTATTTGCC (site ACAGTATCTGG) | 2.92
55 | TGGAATCCATGGACCGGTTTTCCCGGTAATCCGTATTTGTG (site TGGAATCCTCA) | 0.604
56 | GTTAGGACATGGACCGGTTTTCCCGGTAATCCGTATTTGAG (site GTTAGGACTCT) | 1.83
57 | TATTTGGCATGGACCGGTTTTCCCGGTAATCCGTATTTGTG (site TATTTGGCTCT) | 0.0103
58 | AAGCACGCATGGACCGGTTTTCCCGGTAATCCGTATTTGGG (site AAGCACGCTCA) | 0.0347
59 | GACGTCTCATGGACCGGTTTTCCCGGTAATCCGTATTTGGA (site GACGTCTCTTC) | 1.94
60 | AGCCTATCATGGACCGGTTTTCCCGGTAATCCGTATTTGAC (site AGCCTATCTGT) | 0.685
61 | AGGGAGACATGGACCGGTTTTCCCGGTAATCCGTATTTGCA (site AGGTAGACTTG) | 0.162
62 | ATCGACTCATGGACCGGTTTTCCCGGTAATCCGTATTTGAG (site ATCGACTCTCT) | 1.67
63 | TTAGTCTCATGGACCGGTTTTCCCGGTAATCCGTATTTGAC (site CTAGTATCTGT) | 0
64 | TGGCCGGCATGGACCGGTTTTCCCGGTAATCCGTATTTGGC (site TGGCCGGCTCC) | 0.0175
65 | AGTGTGTCATGGACCGGTTTTCCCGGTAATCCGTATTTGAC (site AGTGTGTCTGT) | 1.98
66 | TTTCTGCCATGGACCGGTTTTCCCGGTAATCCGTATTTGCG (site TTTCTGCCTCG) | 0.0153
67 | AACGGGACATGGACCGGTTTTCCCGGTAATCCGTATTTGAT (site AACGGGACTAT) | 2.44
68 | TGGCAAGCATGGACCGGTTTTCCCGGTAATCCGTATTTGTC (site TGGCAAGCTGA) | 0
69 | TATGAATCATGGACCGGTTTTCCCGGTAATCCGTATTTGCC (site TATGAATCTGG) | 1.12
70 | TGGCCGCCATGGACCGGTTTTCCCGGTAATCCGTATTTGGC (site TGGCCGGCTGC) | 0
71 | CTCAATGCATGGACCGGTTTTCCCGGTAATCCGTATTTGGG (site CTCAATGCTCC) | 0
72 | CCGATTACATGGACCGGTTTTCCCGGTAATCCGTATTTGCT (site CCGTTTACTAG) | 0
73 | CAAGAGTCATGGACCGGTTTTCCCGGTAATCCGTATTTGGT (site CAAGAGTCTAC) | 2.79
74 | GGTACACCATGGACCGGTTTTCCCGGTAATCCGTATTTGAC (site AGTACACCTGT) | 0
75 | GGGACGTCATGGACCGGTTTTCCCGGTAATCCGTATTTGGC (site GGGACGTCTGC) | 2.43
